One data set concerns the target RUNX2 (Homo sapiens, UniProt Q13950). The data set is described as follows: Western blot of RUNX2, RUNX1, CBF-β. Type of data set: cell-based. The arrangement: endogenous in cells; host or cells: MDA-231, MDA-468. The conditions noted are these: MDA-468 and MCF7 cells, MG132 10 μM alone, 18 hrs. On the procedure: Whole cell lysates extracted in RIPA buffer (Upstate) were separated on 4-12% gradient SDS-PAGE and transferred to nitrocellulose membrane. The blots were incubated with specific antibodies for each protein overnight at 4° C. After antibody washing, the blots were reacted with their respective secondary antibody and detected with enhanced chemiluminescence reagents (Millipore) according to the supplier's protocol. Antibodies for proteins were purchased as below. RUNX1, RUNX2, CBF-β, ubiquitin and caspase-3 (Cell Signaling Technologies), S451-p-RUNX2 (Bioss Gentaur, Belgium), RUNX3 and Glut-1 (Millipore, Calif.), β-actin and RUNX2 antibody for IHC (Sigma-Aldrich), and Ki-67 for IHC (Bethyl Laboratories, Inc, TX).

In a further data set the test system is MCF7 RUNX2 Tet.OFF cells. The data set is described as follows: Suspension culture tumorsphere formation. It is filed as cell-based, human. The conditions noted are these: TAZ siRNA, TGFβ, 12 days. The method, then:
MCF7 Tet.OFF cells were grown in the presence (+Dox, RUNX2 negative) or absence (−Dox, RUNX2 positive) of doxycycline for 3 days. Cells were then scraped and counted. 60,000 cells were plated in each well of a 6-well ultra-low attachment plate (Corning; 3471) in Promocell Basal Medium (Promocell; c-22211) complete with Supplement Mix (Promocell; c-39216). Cells were then treated with or without 2 ng/mL TGFβ (R&D Systems; 240-B-002). After growth for 10-15 days, wells were photographed and tumorsphere diameters were measured from photographic images (mm). Colony diameters were calculated using the formula: (L+W)/2. Representative photographs were obtained at 4× magnification. […] For TAZ siRNA knockdown experiments, TAZ siRNA was transfected (as below) into MCF7 Tet.OFF cells and 24 hr later cells were scraped and placed into suspension as described above. Small-Interfering RNA (siRNA) pool targeting RUNX1, RUNX2, and non-targeting control were purchased from Dharmacon, and transfected into cells using RNAiMAX Reagent (Invitrogen). Western blot analysis was performed 48 hrs after transfection.

The next data set relates to TAZ. As to the kind of experiment: siRNA mediated knockdown of TAZ (Western blot). It is filed as cell-based, human. The conditions noted are these: MCF7 Tet.OFF cells, low or high RUNX2. On the procedure: TAZ knockdown was performed in MCF7 Tet.OFF cells using Custom 23 mer desalted siRNA oligonucleotides from Sigma and a Universal Scrambled Negative Control siRNA Duplex from Origene (Catalog No. SR30004): TAZ siRNA #1: 5′-GACA […]-3′ (SEQ ID NO: 1), TAZ siRNA #2: 5′-[…] GAACAUU-3′ (SEQ ID NO: 2) and TAZ siRNA #3: 5′-[…]-3′ (SEQ ID NO: 3). Briefly, MCF7 Tet.OFF cells were grown in the absence or presence of doxycycline for 3 days and then transfected with corresponding siRNA's using Lipofectamine-2000 (Life Technologies). RIPA extracts were obtained 48 hr post transfection and total protein was analyzed by Western blot (see above) and probed for TAZ protein expression. Protein levels were normalized to actin and quantified using NIH Image-J software.

In another data set the test system is Lats1/2. As to the kind of experiment: Lats1/2 phosphorylation (Hippo signaling). It is filed as cell-based, human. The conditions noted are these: HCC1428 cells, rsE-Cad 24 hr. On the procedure:
In FIG. 22A HCC1428 luminal BC cells that express E-Cadherin were treated with recombinant soluble E-Cadherin (rsE-Cad) for 24 hr and total cell extracts were analyzed for phosphorylation of the Lats1/2 tumor suppressors. Phospho.Lats1/2 and total Lats1/2 levels declined with rsE-Cad treatment consistent with TAZ translocation to the nucleus, where it acts as an oncogene with RUNX2. […] MCF7 cells expressing RUNX2 (Tet.OFF) were treated with compound 1 drug for 24 hours and total cell extracts were analyzed for phosphp.Lats1/2, total Lats1/2, and RUNX2 expression.

Where a SMILES comes first, the peptide text is derived from it. The star is where a group is joined. Cbz = O=C(OCc1ccccc1)*

Chain of RUNX2 (Q13950 whole entry): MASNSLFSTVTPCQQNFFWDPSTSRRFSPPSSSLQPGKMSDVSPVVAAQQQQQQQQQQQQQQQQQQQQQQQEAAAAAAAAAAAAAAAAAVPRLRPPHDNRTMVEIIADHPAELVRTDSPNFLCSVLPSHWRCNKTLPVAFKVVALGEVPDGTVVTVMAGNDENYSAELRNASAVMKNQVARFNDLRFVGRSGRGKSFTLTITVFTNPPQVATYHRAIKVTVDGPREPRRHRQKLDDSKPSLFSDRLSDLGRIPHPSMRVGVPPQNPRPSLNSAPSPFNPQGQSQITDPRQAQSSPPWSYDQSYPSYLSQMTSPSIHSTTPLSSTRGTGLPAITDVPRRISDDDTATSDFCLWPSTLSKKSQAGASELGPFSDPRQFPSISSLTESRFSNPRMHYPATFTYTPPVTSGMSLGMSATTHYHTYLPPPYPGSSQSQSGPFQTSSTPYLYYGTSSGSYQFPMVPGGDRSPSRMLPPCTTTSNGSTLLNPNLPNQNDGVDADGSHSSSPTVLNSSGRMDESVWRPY

With `CC(C)C[C@@H](C=O)NC(=O)[C@H](CC(C)C)NC(=O)[C@H](CC(C)C)NC(=O)OCc1ccccc1` [MG132, reference compound] (Cbz-Leu-Leu-Leu-aldehyde), at RUNX2, the RUNX2 protein stability result is given as “increased”.

As for “5′-GGACAAACACCCAU GAACAUU-3′ (GGACAAACACCCAUGAACAUU; listed as RNA, chemistry not given here) [TAZ siRNA #2]”, the tumorsphere size in the data set with MCF7 RUNX2 Tet.OFF cells (RUNX2 negative cells) was determined as 5.16±1.91 mm; in the data set on MCF7 RUNX2 Tet.OFF cells (RUNX2 positive cells) it was 5.35±2.42 mm. Further, in the data set on TAZ, the “TAZ knockdown to levels of control (scrambled siRNA)” value (“TAZ knockdown to levels of control” below) is 50-70%.

Regarding “5′-AAGCCUAGCUCGUGGCGGAUU-3′ (listed as RNA, chemistry not given here) [TAZ siRNA #3]”, the values for the tumorsphere size entry with MCF7 RUNX2 Tet.OFF cells (RUNX2 negative cells) and in the data set on MCF7 RUNX2 Tet.OFF cells (RUNX2 positive cells) were “no significant effect” and 6.05±3.12 mm, respectively. Also, the “TAZ knockdown to levels of control” value in the data set with TAZ is 30%.

Regarding “5′-GACA UGAGAUCCAUCACUAUU-3′ (GACAUGAGAUCCAUCACUAUU; listed as RNA, chemistry not given here) [TAZ siRNA #1]”, the tumorsphere size in the data set with MCF7 RUNX2 Tet.OFF cells (RUNX2 negative cells) amounted to 4.85±2.11 mm; with MCF7 RUNX2 Tet.OFF cells (RUNX2 positive cells), 4.43±1.47 mm. Further, the “TAZ knockdown to levels of control” value in the data set on TAZ is listed as 70-80%.

B1: recombinant soluble E-Cadherin: recombinant soluble E-Cadherin (rsE-Cad) (protein, UniProt P12830 155-709, looked up)
extracellular domain: DWVIPPISCPENEKGPFPKNLVQIKSNKDKEGKVFYSITGQGADTPPVGVFIIERETGWLKVTEPLDRERIATYTLFSHAVSSNGNAVEDPMEILITVTDQNDNKPEFTQEVFKGSVMEGALPGTSVMEVTATDADDDVNTYNAAIAYTILSQDPELPDKNMFTINRNTGVISVVTTGLDRESFPTYTLVVQAADLQGEGLSTTATAVITVTDTNDNPPIFNPTTYKGQVPENEANVVITTLKVTDADAPNTPAWEAVYTILNDDGGQFVVTTNPVNNDGILKTAKGLDFEAKQQYILHVAVTNVVPFEVSLTTSTATVTVDVLDVNEAPIFVPPEKRVEVSEDFGVGQEITSYTAQEPDTFMEQKITYRIWRDTANWLEINPDTGAISTRAELDREDFEHVKNSTYTALIIATDNGSPVATGTGTLLLILSDVNDNAPIPEPRTIFFCERNPKPQVINIIDADLPPNTSPFTAELTHGASANWTIQYNDPTQESIILKPKMALEVGDYKINLKLMDNQNKDQVTTLEVSVCDCEGAAGVCRKAQPVEAGLQIPA
modifications: extracellular domain
For B1, the “phosphorylation of the Lats1/2 tumor suppressors” value in the data set with Lats1/2 is reported as “decline in phosphorylation”.

For the origin of these results see patent publication US11634381B2, “RUNX2 transcription factor inhibitors and uses thereof” (University of Maryland, Baltimore, priority 2015, dated 2023).
